Experimental data reported in BindingDB's records for doi:10.1007/bf00165806 (UniversitÄT Heidelberg, 1987).

Key:
Adenosine receptor A1 = molecular target: T1, Adenosine receptor A1 (Bos taurus, UniProt P28190)
T1 sequence (P28190 whole entry): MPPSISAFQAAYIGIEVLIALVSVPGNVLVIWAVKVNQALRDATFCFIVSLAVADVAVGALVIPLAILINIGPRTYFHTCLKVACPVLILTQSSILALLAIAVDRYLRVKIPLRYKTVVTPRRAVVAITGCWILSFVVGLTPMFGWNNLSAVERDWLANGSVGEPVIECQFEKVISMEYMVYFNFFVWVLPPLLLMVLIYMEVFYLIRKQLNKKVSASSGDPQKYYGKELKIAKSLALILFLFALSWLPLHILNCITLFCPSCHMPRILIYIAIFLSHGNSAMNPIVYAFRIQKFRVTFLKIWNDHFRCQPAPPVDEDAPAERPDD

Adenosine receptor A2a = Adenosine receptor A2a (Homo sapiens, UniProt P29274)
Chain of Adenosine receptor A2a (P29274 whole entry): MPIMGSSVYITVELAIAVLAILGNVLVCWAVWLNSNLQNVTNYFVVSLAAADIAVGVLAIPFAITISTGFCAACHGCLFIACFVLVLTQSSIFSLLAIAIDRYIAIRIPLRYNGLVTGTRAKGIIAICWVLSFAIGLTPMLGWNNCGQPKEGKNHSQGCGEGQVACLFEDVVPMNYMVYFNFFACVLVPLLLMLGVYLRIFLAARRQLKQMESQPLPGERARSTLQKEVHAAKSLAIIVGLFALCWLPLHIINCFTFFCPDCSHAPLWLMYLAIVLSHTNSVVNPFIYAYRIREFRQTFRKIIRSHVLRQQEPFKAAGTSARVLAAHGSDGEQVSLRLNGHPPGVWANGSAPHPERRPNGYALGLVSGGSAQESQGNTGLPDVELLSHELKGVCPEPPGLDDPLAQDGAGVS

| Ki (Adenosine receptor A2a) [nM] | Structure (SMILES) | Ki (Adenosine receptor A1) [nM] |
| --- | --- | --- |
|  | CCCn1c(=O)c2[nH]c(C3CCCC3)nc2n(CCC)c1=O [DPCPX] | 0.07 |
|  | CCCn1c(=O)c2[nH]c(-c3ccc(OCC(=O)NCCN)cc3)nc2n(CCC)c1=O [N-(2-Amino-ethyl)-2-[4-(2,6-dioxo-1,3-dipropyl-2,3,6,9-tetrahydro-1H-purin-8-yl)-phenoxy]-acetamide] | 0.08 |
| 210 | CCn1c(=O)c2[nH]c(-c3ccccc3)nc2n(CC)c1=O [1,3-Diethyl-8-phenyl-3,7-dihydro-purine-2,6-dione] |  |
